Conditions: Fluid (supercritical or subcritical phases), Constant-volume piezometry

O [water]
Conditions	mass density [kg/m3]
299.25 K, 5182 kPa	999.2
299.25 K, 31060 kPa	1010.4
349.12 K, 8540 kPa	977.86
349.12 K, 24440 kPa	984.93
399.57 K, 3183 kPa	939.45
399.57 K, 30090 kPa	952.6
438.94 K, 6455 kPa	905.35
438.94 K, 27860 kPa	917.35
494.18 K, 8890 kPa	844.81
494.18 K, 29240 kPa	859.91
555.43 K, 9803 kPa	751.67
555.43 K, 27940 kPa	777.34
617.27 K, 16300 kPa	603.42
617.27 K, 28080 kPa	653.82

Reference: the NIST ThermoML archive (doi:10.1016/j.fluid.2006.05.015)
